In the supplement of paper PMC13380429:

Columns and labels:
Conditions in all cases: 72 h
Caco-2 [1] = assay: cell viability relative to DMSO; higher = less toxic
Calu-3 [2] = assay: as above
HepG2 [3] = assay: as above
U2OS [4] = assay: as above
Vero E6 [5] = assay: as above
Caco-2 [6] = assay: relative viability EC50 (midpoint between 100% and the lowest measured viability); higher = less toxic
Calu-3 [7] = assay: as above
HepG2 [8] = assay: as above
U2OS [9] = assay: as above
Vero E6 [10] = assay: as above
Caco-2 [11] = assay: drug sensitivity score (DSS) for viability; higher = more toxic; extreme values may be limits of the assay
Calu-3 [12] = assay: as above
HepG2 [13] = assay: as above
U2OS [14] = assay: as above
Vero E6 [15] = assay: as above

SMILES | cell viability (Caco-2 [1]; 1 nM) | cell viability (Caco-2 [1]; 10 nM) | cell viability (Caco-2 [1]; 100 nM) | cell viability (Caco-2 [1]; 1000 nM) | cell viability (Caco-2 [1]; 10000 nM) | cell viability (Calu-3 [2]; 1 nM) | cell viability (Calu-3 [2]; 10 nM) | cell viability (Calu-3 [2]; 100 nM) | cell viability (Calu-3 [2]; 1000 nM) | cell viability (Calu-3 [2]; 10000 nM) | cell viability (HepG2 [3]; 1 nM) | cell viability (HepG2 [3]; 10 nM) | cell viability (HepG2 [3]; 100 nM) | cell viability (HepG2 [3]; 1000 nM) | cell viability (HepG2 [3]; 10000 nM) | cell viability (U2OS [4]; 1 nM) | cell viability (U2OS [4]; 10 nM) | cell viability (U2OS [4]; 100 nM) | cell viability (U2OS [4]; 1000 nM) | cell viability (U2OS [4]; 10000 nM) | cell viability (Vero E6 [5]; 1 nM) | cell viability (Vero E6 [5]; 10 nM) | cell viability (Vero E6 [5]; 100 nM) | cell viability (Vero E6 [5]; 1000 nM) | cell viability (Vero E6 [5]; 10000 nM) | relative viability EC50 (Caco-2 [6]) | relative viability EC50 (Calu-3 [7]) | relative viability EC50 (HepG2 [8]) | relative viability EC50 (U2OS [9]) | relative viability EC50 (Vero E6 [10]) | drug sensitivity score (Caco-2 [11]) | drug sensitivity score (Calu-3 [12]) | drug sensitivity score (HepG2 [13]) | drug sensitivity score (U2OS [14]) | drug sensitivity score (Vero E6 [15])
CCc1oc2ccccc2c1C(=O)c1cc(Br)c(O)c(Br)c1 [benzbromarone] | 101% | 93.5% | 105% | 83.1% | 89.9% | 104% | 90.5% | 105% | 99.4% | 107% | 109% | 101% | 96.4% | 102% | 102% | 99.9% | 94.8% | 102% | 102% | 105% | 103% | 108% | 104% | 105% | 99.8% | > 10 µM | > 10 µM | > 10 µM | > 10 µM | > 10 µM | 1.7 | 0 | 0 | 0 | 0
CC(C)(C)NC(=O)N[C@H](C(=O)N1C[C@H]2[C@@H]([C@H]1C(=O)NC(CC1CCC1)C(=O)C(N)=O)C2(C)C)C(C)(C)C (stereo not given in full) [Boceprevir] | 103% | 94.4% | 108% | 92.5% | 105% | 102% | 95.1% | 95.7% | 100% | 102% | 102% | 102% | 95.6% | 100% | 105% | 102% | 93.7% | 100% | 96.1% | 91.6% | 102% | 100% | 102% | 92.7% | 99.9% | > 10 µM | > 10 µM | > 10 µM | > 10 µM | > 10 µM | 0 | 0 | 0 | 0 | 0
O=C1CC2(CCCC2)CC(=O)N1CCCCNC[C@H]1COc2ccccc2O1 (racemic) | 97.8% | 98.2% | 93.8% | 98.3% | 86% | 96.9% | 103% | 96.9% | 94.2% | 85.3% | 99% | 112% | 106% | 101% | 110% | 104% | 102% | 101% | 104% | 97.8% | 103% | 101% | 101% | 97% | 98.6% | > 10 µM | > 10 µM | > 10 µM | > 10 µM | > 10 µM | 0.3 | 0.3 | 0 | 0 | 0
CCCn1c(=O)c2[nH]cnc2n(-c2ccc(Cl)cc2)c1=O [arofylline] | 87.3% | 97.6% | 94.4% | 87.9% | 95.5% | 97.7% | 95.4% | 103% | 96.8% | 92.2% | 104% | 102% | 99.1% | 100% | 101% | 103% | 99.1% | 102% | 96.8% | 98.9% | 108% | 108% | 101% | 98.3% | 96% | > 10 µM | > 10 µM | > 10 µM | > 10 µM | > 10 µM | 0 | 0 | 0 | 0 | 0
C#Cc1cnc2nc(O)n(C(CC)CC)c2n1 [tirasemtiv] | 90.7% | 92.8% | 103% | 107% | 103% | 95.8% | 98.7% | 103% | 95.7% | 106% | 102% | 113% | 99.4% | 115% | 98.5% | 103% | 100% | 101% | 98.6% | 98.5% | 94.8% | 101% | 93.4% | 96.9% | 106% | > 10 µM | > 10 µM | > 10 µM | > 10 µM | > 10 µM | 0 | 0 | 0 | 0 | 0
Cn1c(C#N)ccc1-c1ccc2c(c1)C(C)(C)OC(=S)N2 [tanaproget] | 98% | 101% | 100% | 94.8% | 75.4% | 105% | 106% | 101% | 108% | 88.9% | 106% | 109% | 95.8% | 87% | 24.7% | 102% | 103% | 102% | 103% | 94.9% | 102% | 103% | 98.2% | 105% | 107% | > 10 µM | > 10 µM | 1.86 µM | > 10 µM | > 10 µM | 1.7 | 0 | 6.3 | 0 | 0
CNC(=O)ON(C(C)=O)C(=O)NC [caracemide] | 89.6% | 103% | 95.8% | 97.1% | 99.7% | 94% | 102% | 111% | 101% | 98.3% | 107% | 104% | 112% | 93.8% | 108% | 94.8% | 102% | 99.3% | 103% | 106% | 97.2% | 96.9% | 99.6% | 94.7% | 112% | > 10 µM | > 10 µM | > 10 µM | > 10 µM | > 10 µM | 0 | 0 | 0 | 0 | 0
